Measured values taken from patent publication US12583855B2, “RET selective inhibitor, preparation method therefor and use thereof” (SHOUYAO HOLDINGS (BEIJING) CO., LTD., priority 2019, dated 2026).
Substitutions are numbered along the chain they refer to.

Legend:
Format in all cases: biochemical
VEGFR2 = VEGFR2 (Homo sapiens, UniProt P35968); assay: In vitro enzymatic activity assay on VEGFR2 (HTRF); details: GST-VEGFR2 0.1 nM, ATP 2.5 μM
Method: 3. n Vitro Enzymatic Activity Assay for Compounds on VEGFR2
The compounds were diluted 5-fold with 100% DMSO starting from 1 mM (7 concentrations in total), and 2 μL of each concentration was added to 48 μL of reaction buffer (50 mM HEPES pH 7.5, 0.1 mM Na3VO4, 5 mM MgCl2, 1 mM MnCl2, 1 mM DTT, 0.001% Tween 20, and 100 μg/ml BSA) for dilution and mixing. 2.5 μL of compounds and 5 μL of GST-VEGFR2 (final concentration of 0.1 nM) were added to a 384-well plate (OptiPlate-384, purchased from PerkinElmer), the mixture was mixed by centrifugation, and 2.5 μL of ATP (final concentration of 2.5 μM) and TK Peptide Substrate mixture (final concentration of 1 μM, purchased from Cisbio) were added to start the reaction, with a total reaction volume of 10 μL. The 384-well plate was placed in an incubator and reacted at 23° C. for 1.5 h before the reaction was stopped by the addition of 5 μL of TK Antibody (purchased from Cisbio) and 5 μL of Streptavidin-XL665 (purchased from Cisbio). After further incubation in the incubator for 1 h. fluorescence values (excitation at 320 nm, detecting emitted light at 665 nm and 620 nm, and a ratio of the two as an enzyme activity signal) were read on Envision (purchased from PerkinElmer). The enzymatic activity signal of VEGFR2 was measured at 7 concentrations for each compound and the data were calculated using GraphPad Prism software to obtain the IC50 value for the compound.

RET^WT = target: T1, RET^WT (Homo sapiens, UniProt P07949); assay: In vitro enzymatic activity assay on RET^WT (HTRF); details: GST-RET^WT (658-1114 aa) 0.5 nM, ATP 25 μM
T1 construct: GST-RET^WT (658-1114 aa, final concentration of 0.5 nM)
T1 sequence (P07949 658-1114): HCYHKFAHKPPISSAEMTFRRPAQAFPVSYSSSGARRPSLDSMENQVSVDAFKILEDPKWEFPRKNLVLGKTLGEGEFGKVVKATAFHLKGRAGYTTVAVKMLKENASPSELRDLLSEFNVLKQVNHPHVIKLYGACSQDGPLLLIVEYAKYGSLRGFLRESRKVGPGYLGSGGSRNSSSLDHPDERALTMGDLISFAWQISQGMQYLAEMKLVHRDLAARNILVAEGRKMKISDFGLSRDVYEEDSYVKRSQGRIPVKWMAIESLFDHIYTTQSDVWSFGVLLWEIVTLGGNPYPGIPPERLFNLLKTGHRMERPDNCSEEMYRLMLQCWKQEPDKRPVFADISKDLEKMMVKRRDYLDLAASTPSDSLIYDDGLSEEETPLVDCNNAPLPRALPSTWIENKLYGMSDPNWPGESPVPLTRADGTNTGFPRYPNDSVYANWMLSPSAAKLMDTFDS
Method: 1. In Vitro Enzymatic Activity Assay for Compounds on RET^WT
The compounds were diluted 5-fold with 100% DMSO starting from 0.2 mM (7 concentrations in total), and 2 μL of each concentration was added to 48 μL of reaction buffer (50 mM HEPES pH7.5, 0.1 mM Na3VO4, 5 mM MgCl2. 1 mM DTT, 0.001% Tween 20, and 100 μg/ml BSA) for dilution and mixing.
The 384-well plate was placed in an incubator and reacted at 23° C. for 2 h before the reaction was stopped by the addition of 5 μL of TK Antibody (purchased from Cisbio) and 5 μL of Streptavidin-XL665 (purchased from Cisbio). […] The enzymatic activity signal of RET^WT was measured at 7 concentrations for each compound and the data were calculated using GraphPad Prism software to obtain the IC50 value for the compound.

RET^V804M = target: T2, RET^V804M (Homo sapiens, UniProt P07949, V804M); assay: In vitro enzymatic activity assay on RET^V804M (HTRF); details: GST-RET^V804M (658-1114 aa) 0.02 nM, ATP 1.5 μM
T2 construct: GST-RET^V804M (658-1114 aa, final concentration of 0.02 nM)
T2 sequence (P07949 658-1114 V804M): T1 sequence (P07949 658-1114) with V147M

VEGFR2, sequence (P35968 20-1356): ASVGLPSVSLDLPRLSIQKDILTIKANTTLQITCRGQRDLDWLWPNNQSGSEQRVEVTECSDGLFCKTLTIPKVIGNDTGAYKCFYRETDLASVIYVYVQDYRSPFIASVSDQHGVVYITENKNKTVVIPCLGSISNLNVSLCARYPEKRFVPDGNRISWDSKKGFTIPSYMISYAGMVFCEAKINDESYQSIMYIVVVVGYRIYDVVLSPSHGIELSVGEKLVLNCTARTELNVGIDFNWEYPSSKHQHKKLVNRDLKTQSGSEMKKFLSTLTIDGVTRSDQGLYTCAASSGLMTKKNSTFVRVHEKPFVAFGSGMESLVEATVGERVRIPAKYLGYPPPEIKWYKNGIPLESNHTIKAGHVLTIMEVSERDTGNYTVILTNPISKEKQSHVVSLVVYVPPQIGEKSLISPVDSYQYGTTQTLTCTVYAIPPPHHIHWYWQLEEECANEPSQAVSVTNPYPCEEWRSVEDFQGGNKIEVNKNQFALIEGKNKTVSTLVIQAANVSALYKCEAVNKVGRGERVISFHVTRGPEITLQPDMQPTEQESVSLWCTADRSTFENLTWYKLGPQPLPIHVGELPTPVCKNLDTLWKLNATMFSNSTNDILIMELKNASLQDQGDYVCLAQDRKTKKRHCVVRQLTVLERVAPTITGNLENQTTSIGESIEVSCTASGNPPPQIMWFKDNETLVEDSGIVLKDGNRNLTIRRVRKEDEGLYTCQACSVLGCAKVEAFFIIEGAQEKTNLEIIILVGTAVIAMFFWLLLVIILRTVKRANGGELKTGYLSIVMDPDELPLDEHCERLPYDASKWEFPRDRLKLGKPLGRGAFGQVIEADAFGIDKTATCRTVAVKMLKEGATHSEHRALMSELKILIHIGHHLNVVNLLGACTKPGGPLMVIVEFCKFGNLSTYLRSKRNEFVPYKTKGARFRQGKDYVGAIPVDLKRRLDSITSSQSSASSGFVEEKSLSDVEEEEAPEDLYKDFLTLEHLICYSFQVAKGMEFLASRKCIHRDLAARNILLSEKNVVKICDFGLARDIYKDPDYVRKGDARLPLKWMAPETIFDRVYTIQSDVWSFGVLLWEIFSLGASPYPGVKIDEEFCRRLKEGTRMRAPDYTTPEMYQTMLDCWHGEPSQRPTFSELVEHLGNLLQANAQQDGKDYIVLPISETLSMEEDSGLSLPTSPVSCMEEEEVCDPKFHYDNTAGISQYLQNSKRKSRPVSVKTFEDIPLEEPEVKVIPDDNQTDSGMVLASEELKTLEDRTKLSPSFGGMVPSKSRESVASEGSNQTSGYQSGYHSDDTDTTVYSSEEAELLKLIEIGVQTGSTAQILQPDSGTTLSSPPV

SMILES | IC50 (VEGFR2) | IC50 (RET^WT) | IC50 (RET^V804M)
CSc1ccc(CN2C3CC2CN(c2ccc(-c4cc(OCC(C)(C)O)cn5ncc(C#N)c45)cn2)C3)cn1 [Example 11, 6-(2-hydroxy-2-methylpropoxy)-4-(6-(6-((6-(methylthio)pyridin-3-yl)methyl)-3,6-diazabicyclo[3.1.1]heptan-3-yl)pyridin-3-yl)pyrazolo[1,5-a]pyridine-3-carbonitrile] | 37 nM | 1.73 nM | –
CSc1ccc(CN2C3CCC2CN(c2ccc(-c4cc(-c5cnn(C(F)F)c5)cn5ncc(C#N)c45)cn2)C3)cn1 [Example 73, 6-(1-(difluoromethyl)-1Hpyrazol-4-yl)-4-(6-(8-((6-(methylthio)pyridin-3-yl)methyl)-3,8-diazabicyclo[3.2.1]octan-3-yl)pyridin-3-yl)pyrazolo[1,5-a]pyridine-3-carbonitrile] | 65.4 nM | 0.753 nM | 5.89 nM
COc1ccc(CN2C3CC2CN(c2ccc(-c4cc(N5CC(OC)C5)cn5ncc(C#N)c45)cn2)C3)cn1 [Example 27, 6-(3-methoxyazetidin-1-yl)-4-(6-(6-((6-methoxypyridin-3-yl)methyl)-3,6-diazabicyclo[3.1.1]heptan-3-yl)pyridin-3-yl)pyrazolo[1,5-a]pyridine-3-carbonitrile] | 2.28 nM | 0.536 nM | –
COc1ccc(CN2CCN(c3ccc(-c4cc(N5CCOCC5)cn5ncc(C#N)c45)cn3)CC2)cn1 [Example 19, 6-(morpholino-1-yl)-4-(6-(4-((6-methoxypyridin-3-yl)methyl)piperazin-1-yl)pyridin-3-yl)pyrazolo[1,5-a]pyridine-3-carbonitrile] | 94 nM | 0.636 nM | –
COc1ccc(CN2C3CC2CN(c2ccc(-c4cc(N5CC(O)(C(F)(F)F)C5)cn5ncc(C#N)c45)cn2)C3)cn1 [Example 28, 6-(3-hydroxy-3-(trifluoromethyl)azetidin-1-yl)-4-(6-(6-((6-methoxypyridin-3-yl)methyl)-3,6-diazabicyclo[3.1.1]heptan-3-yl)pyridin-3-yl)pyrazolo[1,5-a]pyridine-3-carbonitrile] | – | 0.757 nM | 2.5 nM
N#Cc1cnn2cc(-c3cnn(C(F)F)c3)cc(-c3ccc(N4CC5CC(C4)N5Cc4ccc([N+](=O)[O-])cc4)nc3)c12 [Example 83, 4-(6-(6-(4-nitrobenzyl)-3,6-diazabicyclo[3.1.1]heptan-3-yl)pyridin-3-yl)-6-(1-(difluoromethyl)-1Hpyrazol-4-yl)pyrazolo[1,5-a]pyridine-3-carbonitrile] | 4.59 nM | 0.12 nM | –
CSc1ccc(CN2C3CC2CN(c2ccc(-c4cc(-c5cnn(C(F)F)c5)cn5ncc(C#N)c45)cn2)C3)nc1 [Example 66, 6-(1-(difluoromethyl)-1Hpyrazol-4-yl)-4-(6-(6-((5-(methylthio)pyridin-2-yl)methyl)-3,6-diazabicyclo[3.1.1]heptan-3-yl)pyridin-3-yl)pyrazolo[1,5-a]pyridine-3-carbonitrile] | 2.94 nM | 0.268 nM | –
CSc1ccc(CN2C3CC2CN(c2ccc(-c4cc(-c5cnn(C(F)F)c5)cn5ncc(C#N)c45)cn2)C3)cc1 [Example 82, 6-(1-difluoromethyl-1Hpyrazol-4-yl)-4-(6-(6-(4-(methylthio)benzyl)-3,6-diazabicyclo[3.1.1]heptan-3-yl)pyridin-3-yl)pyrazolo[1,5-a]pyridine-3-carbonitrile] | 0.734 nM | 0.136 nM | –
CC(C)(O)COc1cc(-c2ccc(N3CC4CC(C3)N4Cc3ccc(S(C)(=O)=O)cc3)nc2)c2c(C#N)cnn2c1 [Example 38, 6-(2-hydroxy-2-methylpropoxy)-4-(6-(6-(4-(methylsulfonyl)benzyl)-3,6-diazabicyclo[3.1.1]heptan-3-yl)pyridin-3-yl)pyrazolo[1,5-a]pyridine-3-carbonitrile] | 40.3 nM | 0.419 nM | –
COc1ccc(CN2C3CC2CN(c2ccc(-c4cc(N5CC6(CCOCC6)C5)cn5ncc(C#N)c45)cn2)C3)cn1 [Example 30, 4-(6-(6-((6-methoxypyridin-3-yl)methyl)-3,6-diazabicyclo[3.1.1]heptan-3-yl)pyridin-3-yl)-6-(7-oxa-2-azaspiro[3.5]nonan-2-yl) pyrazolo[1,5-a]pyridine-3-carbonitrile] | – | 0.68 nM | 1.11 nM
Cn1cc(-c2cc(-c3ccc(N4CC5CCC(C4)N5Cc4ccc(S(C)(=O)=O)cc4)nc3)c3c(C#N)cnn3c2)cn1 [Example 57, 6-(1-methyl-1Hpyrazol-4-yl) 4-(6-(8-(4-(methylsulfonyl)benzyl)-3,8-diazabicyclo[3.2.1]octan-3-yl)pyridin-3-yl)pyrazolo[1,5-a]pyridine-3-carbonitrile] | 8.94 nM | – | –

Second part, the compound after the results:

IC50 (VEGFR2) | IC50 (RET^WT) | IC50 (RET^V804M) | SMILES
10.1 nM | 1.07 nM | – | CN(C)C(=O)Cn1cc(-c2cc(-c3ccc(N4CCN(Cc5ccc(S(C)(=O)=O)cc5)CC4)nc3)c3c(C#N)cnn3c2)cn1 [Example 54]
0.154 nM | 0.066 nM | – | CSc1ccc(CN2C3CC2CN(c2ccc(-c4cc(-c5cnn(C)c5)cn5ncc(C#N)c45)cn2)C3)cc1 [Example 59, 6-(1-methyl-1Hpyrazol-4-yl)-4-(6-(6-(4-(methylthio)benzyl)-3,6-diazabicyclo[3.1.1]heptan-3-yl)pyridin-3-yl)pyrazolo[1,5-a]pyridine-3-carbonitrile]
18.2 nM | 0.94 nM | – | CS(=O)(=O)c1ccc(CN2CCN(c3ccc(-c4cc(-c5cnn(C(F)F)c5)cn5ncc(C#N)c45)cn3)CC2)cc1 [Example 49, 6-(1-difluoromethyl-1Hpyrazol-4-yl)-4(6-(4-(4-(methylsulfonyl)benzyl)piperazin-1-yl)pyridin-3-yl)pyrazolo[1,5-a]pyridine-3-carbonitrile]
13 nM | – | – | CCSc1ccc(CN2CCN(c3ccc(-c4cc(-c5cnn(C)c5)cn5ncc(C#N)c45)cn3)CC2)cn1 [Example 18, 6-(1-methyl-1Hpyrazol-4-yl)-4(6-(4-((6-(ethylthio)pyridin-3-yl)methyl)piperazin-1-yl)pyridin-3-yl)pyrazolo[1,5-a]pyridine-3-carbonitnile]
10.1 nM | 0.57 nM | – | CS(=O)(=O)c1ccccc1CN1CCN(c2ccc(-c3cc(-c4cnn(C(F)F)c4)cn4ncc(C#N)c34)cn2)CC1 [Example 48, 6-(1-difluoromethyl-1Hpyrazol-4-yl)-4-(6-(4-(2-(methylsulfonyl)benzyl)piperazin-1-yl)pyridin-3-yl)pyrazolo[1,5-a]pyridine-3-carbonitrile]
6.2 nM | 0.328 nM | – | CSc1cccc(CN2CCN(c3ccc(-c4cc(-c5cnn(C)c5)cn5ncc(C#N)c45)cn3)CC2)n1 [Example 51, 6-(1-methyl-1Hpyrazol-4-yl)-4-(6-(4-((6-(methylthio)pyridin-2-yl)methyl)piperazin-1-yl)pyridin-3-yl)pyrazolo[1,5-a]pyridine-3-carbonitrile]
